Source: patent publication US20140081025A1, “HETEROAROMATIC RING DERIVATIVE” (TAISHO PHARMACEUTICAL CO., LTD., priority 2011, published 2014)
pIC50: −log10 of the molar value.

What was measured:
[1] = biological target: T1, human orexin 2 receptor (hOX2R) (Homo sapiens, UniProt O43614); test: Measurement of orexin antagonist activity (intracellular Ca2+ fluorescence, FDSS) in CHO cells expressing hOX2R; type: cell-based; conditions: CHO cells forcibly expressing hOX2R; ligand (two-amino-acid-substituted human orexin-A) 3 nM; Fluo 4-AM; read-out: IC50 value OX2
T1 construct: expressed in transfected cells; host or cells: Chinese hamster ovary (CHO) cells
T1 sequence (O43614 1-444): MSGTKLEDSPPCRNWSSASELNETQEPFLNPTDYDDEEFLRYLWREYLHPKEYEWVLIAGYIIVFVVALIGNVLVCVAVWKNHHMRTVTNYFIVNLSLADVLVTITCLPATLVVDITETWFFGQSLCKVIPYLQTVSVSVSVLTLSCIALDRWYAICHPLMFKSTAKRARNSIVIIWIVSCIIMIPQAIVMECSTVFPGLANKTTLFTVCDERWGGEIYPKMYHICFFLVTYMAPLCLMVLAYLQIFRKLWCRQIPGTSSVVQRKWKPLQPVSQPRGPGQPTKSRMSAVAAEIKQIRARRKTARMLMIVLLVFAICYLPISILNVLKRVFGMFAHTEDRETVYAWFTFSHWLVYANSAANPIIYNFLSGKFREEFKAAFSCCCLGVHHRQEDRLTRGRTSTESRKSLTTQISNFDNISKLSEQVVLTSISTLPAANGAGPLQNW
Protocol: (§1) The antagonist activity of a test compound against the human orexin 1 receptor (hOX1R) or orexin 2 receptor (hOX2R) was measured by the method described in the document (Toshikatsu Okumura et al., Biochemical and Biophysical Research Communications, 280, 976-981, 2001) with appropriate modification. Chinese hamster ovary (CHO) cells forcibly expressing hOX1R or hOX2R were seeded into each well of a 96-well Black clear bottom plate (Nunc A/S) in the amount of 20000 cells per well and were cultured in a Ham's F-12 medium (Invitrogen, Inc.) containing 0.1 mM MEM non-essential amino acids (Invitrogen, Inc.), 0.5 mg/mL G418 (Invitrogen, Inc.), and 10% fetal calf serum (Invitrogen, Inc.) at 37° C. in 5% CO2 for 16 hours. The medium was removed, and then added to each well was 100 μL of an assay buffer (pH 7.4) containing 0.5 μM Fluo 4-AM ester (Dojindo Laboratories), wherein the buffer was composed of 25 mM HEPES (Dojindo Laboratories), a Hanks' balanced salt solution (Invitrogen, Inc.), 0.1% bovine serum albumin (Sigma-Aldrich Co., LLC.), 2.5 mM probenecid (Sigma-Aldrich Co., LLC.), and 200 μg/mL Amaranth (Sigma-Aldrich Co., LLC.), followed by incubation at 37° C. in 5% CO2 for 60 min. The assay buffer containing Fluo 4-AM ester was removed, and then 150 μL of an assay buffer solution containing 10 mM of the test compound dissolved in dimethyl sulfoxide was added to each well, followed by incubation for 30 min.
(§2) A peptide (Pyr-[…]NH2: Peptide Institute, Inc.), which is a ligand having substitution of two amino acids in human orexin-A, was diluted with an assay buffer to a final concentration of 300 pM for hOX1R and to a final concentration of 3 nM for hOX2R. The reaction was started by adding 50 μL of this ligand solution to each well. The reaction was monitored by measuring the fluorescence of each well at each 1 second for 3 min with a Functional Drug Screening System (FDSS manufactured by Hamamatsu Photonics K.K.), and the antagonist activity was determined based on the maximum fluorescence value as an index of the intracellular Ca^2+ concentration. The antagonist activity of a test compound was calculated by assuming that the fluorescence value of the well containing only a dilution buffer was 100% and that the fluorescence value of the well containing a buffer not containing the ligand or any test compound was 0%. The 50% inhibitory concentration (IC50 value) of a test compound was determined from fluorescence values at various concentrations of the test compound.

[2] = biological target: T2, human orexin 1 receptor (hOX1R) (Homo sapiens, UniProt O43613); test: Measurement of orexin antagonist activity (intracellular Ca2+ fluorescence, FDSS) in CHO cells expressing hOX1R; type: cell-based; conditions: CHO cells forcibly expressing hOX1R; ligand (two-amino-acid-substituted human orexin-A) 300 pM; Fluo 4-AM; read-out: IC50 value OX1
T2 construct: expressed in transfected cells; host or cells: Chinese hamster ovary (CHO) cells
T2 sequence (O43613 1-425): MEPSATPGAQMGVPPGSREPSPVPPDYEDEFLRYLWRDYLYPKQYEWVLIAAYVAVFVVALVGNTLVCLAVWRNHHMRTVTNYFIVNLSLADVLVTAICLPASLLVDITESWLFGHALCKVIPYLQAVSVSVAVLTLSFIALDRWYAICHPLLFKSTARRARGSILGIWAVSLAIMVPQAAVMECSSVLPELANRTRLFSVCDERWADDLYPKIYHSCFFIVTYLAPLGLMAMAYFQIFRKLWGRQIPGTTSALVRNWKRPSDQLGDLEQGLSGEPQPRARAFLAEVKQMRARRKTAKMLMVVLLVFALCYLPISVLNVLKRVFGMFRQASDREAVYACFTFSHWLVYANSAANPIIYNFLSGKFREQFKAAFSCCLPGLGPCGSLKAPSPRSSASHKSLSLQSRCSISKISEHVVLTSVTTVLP
Protocol: as §1, §2

| SMILES | pIC50 [1] | pIC50 [2] |
| --- | --- | --- |
| CCN(CCc1noc(-c2ccc(F)cc2)n1)C(=O)c1cc(C)ccc1-c1ncccn1 [Example 39, N-ethyl-N-{2-[5-(4-fluorophenyl)-1,2,4-oxadiazol-3-yl]ethyl}-5-methyl-2-(pyrimidin-2-yl)benzamide] | 7.76 | 9.15 |
| CCN(CCc1cc(-c2ccc(F)cn2)no1)C(=O)c1cc(C)ccc1-n1nccn1 [Example 11, N-Ethyl-N-{2-[3-(5-fluoropyridin-2-yl)-1,2-oxazol-5-yl]ethyl}-5-methyl-2-(2H-1,2,3-triazol-2-yl)benzamide] | 7.58 | 7.77 |
| CCN(CCc1ccn(-c2ccc(F)cn2)n1)C(=O)c1cc(C)ccc1-c1ncccn1 [Example 6, N-Ethyl-N-{2-[1-(5-fluoropyridin-2-yl)-1H-pyrazol-3-yl]ethyl}-5-methyl-2-(pyrimidin-2-yl)benzamide] | 7.86 | 8.15 |
| CCN(CCc1noc(-c2ccc(F)cn2)n1)C(=O)c1ccccc1-n1nccn1 [Example 44, N-ethyl-N-{2-[5-(5-fluoropyridin-2-yl)-1,2,4-oxadiazol-3-yl]ethyl}-2-(2H-1,2,3-triazol-2-yl) benzamide] | 6.21 | 6.10 |
| Cc1ccc(-n2nccn2)c(C(=O)N(C)CCc2cnn(-c3ccc(F)cn3)c2)c1 [Example 2, N-{2-[1-(5-Fluoropyridin-2-yl)-1H-pyrazol-4-yl]ethyl}-N,5-dimethyl-2-(2H-1,2,3-triazol-2-yl)benzamide] | 8.07 | 9.15 |
| CCN(CCc1ccn(-c2cccc(C(F)(F)F)n2)n1)C(=O)c1ccccc1-n1nccn1 [Example 24, N-ethyl-2-(2H-1,2,3-triazol-2-yl)-N-(2-{1-[6-(trifluoromethyl)pyridin-2-yl]-1H-pyrazol-3-yl}ethyl)benzamide] | 7.61 | 7.75 |
| CN(CCc1ccn(-c2ccc(F)cn2)n1)C(=O)c1ccccc1-n1nccn1 [Example 14, N-{2-[1-(5-Fluoropyridin-2-yl)-1H-pyrazol-3-yl]ethyl}-N-methyl-2-(2H-1,2,3-triazol-2-yl)benzamide] | 6.88 | 8.00 |
| CCN(CCc1ccn(-c2ccc(F)cn2)n1)C(=O)c1ccc(F)cc1-n1nccn1 [Example 17, N-Ethyl-4-fluoro-N-{2-[1-(5-fluoropyridin-2-yl)-1H-pyrazol-3-yl]ethyl}-2-(2H-1,2,3-triazol-2-yl)benzamide] | 8.55 | 9.40 |
| CCN(CCc1ccn(-c2ccc(F)cn2)n1)C(=O)c1cc(F)ccc1-c1ncccn1 [Example 20, N-ethyl-5-fluoro-N-{2-[1-(5-fluoropyridin-2-yl)-1H-pyrazol-3-yl]ethyl}-2-(pyrimidin-2-yl) benzamide] | 7.88 | 8.77 |
| CCN(CCc1cnn(-c2ccc(F)cn2)c1)C(=O)c1ccccc1-n1nccn1 [Example 3, N-Ethyl-N-{2-[1-(5-fluoropyridin-2-yl)-1H-pyrazol-4-yl]ethyl}-2-(2H-1,2,3-triazol-2-yl)benzamide] | 7.22 | 8.38 |
| CCN(CCc1noc(-c2ccc(F)c(F)c2)n1)C(=O)c1cc(F)ccc1-c1ncccn1 [Example 43, N-{2-[5-(3,4-difluorophenyl)-1,2,4-oxadiazol-3-yl]ethyl}-N-ethyl-5-fluoro-2-(pyrimidin-2-yl) benzamide] | 7.16 | 7.21 |
| CN(CCc1noc(-c2ccc(F)c(F)c2)n1)C(=O)c1ccccc1-n1nccn1 [Example 32, N-{2-[5-(3,4-difluorophenyl)-1,2,4-oxadiazol-3-yl]ethyl}-N-methyl-2-(2H-1,2,3-triazol-2-yl) benzamide] | 6.87 | 7.83 |
| CCN(CCc1ccn(-c2ccc(F)cn2)n1)C(=O)c1ccccc1-c1ncccn1 [Example 19, N-ethyl-N-{2-[1-(5-fluoropyridin-2-yl)-1H-pyrazol-3-yl]ethyl}-2-(pyrimidin-2-yl) benzamide] | 8.13 | 9.05 |
| Cc1ccc(-n2nccn2)c(C(=O)N(C)CCc2noc(-c3ccc(F)cc3)n2)c1 [Example 35, N-{2-[5-(4-fluorophenyl)-1,2,4-oxadiazol-3-yl]ethyl}-N,5-dimethyl-2-(2H-1,2,3-triazol-2-yl) benzamide] | 7.86 | 8.62 |
| CCN(CCc1cn(-c2ccc(F)cn2)cn1)C(=O)c1cc(C)ccc1-n1nccn1 [Example 13, N-Ethyl-N-{2-[1-(5-fluoropyridin-2-yl)-1H-imidazol-4-yl]ethyl}-5-methyl-2-(2H-1,2,3-triazol-2-yl)benzamide] | 8.47 | 8.05 |
| CCN(CCc1ccn(-c2ccc(F)cn2)n1)C(=O)c1ccccc1-n1nccn1 [Example 4, N-Ethyl-N-{2-[1-(5-fluoropyridin-2-yl)-1H-pyrazol-3-yl]ethyl}-2-(2H-1,2,3-triazol-2-yl)benzamide] | 8.62 | 9.30 |
| CCN(CCc1ccn(-c2cccc(C)n2)n1)C(=O)c1ccccc1-n1nccn1 [Example 23, N-ethyl-N-{2-[1-(6-methylpyridin-2-yl)-1H-pyrazol-3-yl]ethyl}-2-(2H-1,2,3-triazol-2-yl) benzamide] | 7.99 | 8.52 |
| CCN(CCc1ccn(-c2ccc(F)cn2)n1)C(=O)c1c(F)cccc1-n1nccn1 [Example 18, N-ethyl-2-fluoro-N-{2-[1-(5-fluoropyridin-2-yl)-1H-pyrazol-3-yl]ethyl}-2-(2H-1,2,3-triazol-2-yl) benzamide] | 8.20 | 8.80 |
| CCN(CCc1noc(-c2ccc(F)c(F)c2)n1)C(=O)c1cc(C)ccc1-n1nccn1 [Example 37, N-ethyl-N-{2-[5-(3,4-difluorophenyl)-1,2,4-oxadiazol-3-yl]ethyl}-5-methyl-2-(2H-1,2,3-triazol-2-yl)benzamide] | 8.70 | 8.96 |
| Cc1ccc(-n2nccn2)c(C(=O)N(C)CCc2noc(-c3ccc(F)cn3)n2)c1 [Example 34, N-{2-[5-(5-fluoropyridin-2-yl)-1,2,4-oxadiazol-3-yl]ethyl}-N,5-dimethyl-2-(2H-1,2,3-triazol-2-yl)benzamide] | 6.92 | 7.08 |
| CCN(CCc1ccn(-c2ccc(F)c(F)c2)n1)C(=O)c1ccccc1-n1nccn1 [Example 25, N-{2-[1-(3,4-difluorophenyl)-1H-pyrazol-3-yl]ethyl}-N-ethyl-2-(2H-1,2,3-triazol-2-yl) benzamide] | 8.48 | 8.80 |
| CCN(CCc1ccn(-c2ccc(F)cn2)n1)C(=O)c1cc(F)ccc1-n1nccn1 [Example 7, N-Ethyl-N-{2-[1-(5-fluoropyridin-2-yl)-1H-pyrazol-3-yl]ethyl}-5-fluoro-2-(2H-1,2,3-triazol-2-yl)benzamide] | 7.60 | 7.96 |
| CCN(CCc1noc(-c2ccc(F)cn2)n1)C(=O)c1cc(C)ccc1-c1ncccn1 [Example 45, N-ethyl-N-{2-[5-(5-fluoropyridin-2-yl)-1,2,4-oxadiazol-3-yl]ethyl}-5-methyl-2-(pyrimidin-2-yl)benzamide] | 6.80 | 6.79 |
